Some test systems named below: HCC-2998 colon; HT29 colon; KM12 colon; MALME-3M melanoma; MDA-MB-231 breast; MDA-MB-435; NCI-H226 lung; NCI/ADR-RES ovarian; RXF 393 renal; SF-268 CNS.
What all share (assay): DTP human tumour cell line panel, 48 h

SMILES strings stand for the structures.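 Dose response: 5 concentrations. Exposure: 48 h. Format: 96-well plates. Endpoint: linear interpolation; highest concentration if not reached. GI50 = concentration required for 50% inhibition of growth. Definition used: TGI = concentration required for complete inhibition of growth.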 Where only a bound is given, the exact number is not on record here.

The term GI50 denotes the concentration giving 50% growth inhibition. One may read the TGI as the concentration at which net growth stops. Regarding `Cc1n(Cc2ccc3ccccc3c2)cc[n+]1Cc1ccc2ccccc2c1`, the GI50 in the test with HCC-2998 colon is 717 nM; in the test with HT29 colon, 521 nM; in the test on KM12 colon, 592 nM; in the test with MALME-3M melanoma it was 627 nM; in the test with MDA-MB-231 breast, 1030 nM; in the test with MDA-MB-435, 544 nM. The GI50 in the test with NCI-H226 lung is 1850 nM; in the test on NCI/ADR-RES ovarian, 41300 nM; with RXF 393 renal, 857 nM; with SF-268 CNS, 1140 nM. The TGI in the test with HCC-2998 colon is 2270 nM; in the test on HT29 colon, 3020 nM; with KM12 colon, 2040 nM; in the test on MALME-3M melanoma, 2560 nM; with MDA-MB-231 breast, 2430 nM; with MDA-MB-435, 2380 nM. In addition, the total growth inhibition concentration (TGI) was 10400 nM with NCI-H226 lung, above 100000 nM in the test on NCI/ADR-RES ovarian, 3400 nM in the test on RXF 393 renal and 8690 nM with SF-268 CNS.

For `Cc1ccc(Nc2nc(N)c(C(=O)c3ccc(C#N)cc3)s2)cc1`, the GI50 was 1590 nM in the test on HCC-2998 colon; 250 nM in the test on HT29 colon; 338 nM in the test on KM12 colon; 5250 nM in the test with MALME-3M melanoma; 1010 nM in the test with MDA-MB-231 breast; 77.9 nM in the test with MDA-MB-435. Also, the GI50 in the test with NCI-H226 lung was 1600 nM; in the test with NCI/ADR-RES ovarian it was 196 nM; in the test with RXF 393 renal it was 398 nM; in the test on SF-268 CNS, 2590 nM. In addition, the TGI with HCC-2998 colon was above 53900 nM; in the test on HT29 colon, above 90200 nM; with KM12 colon it was above 87100 nM; in the test on MALME-3M melanoma, above 100000 nM; in the test with MDA-MB-231 breast, above 100000 nM; with NCI-H226 lung, above 93500 nM. The TGI was 36300 nM with NCI/ADR-RES ovarian, 7440 nM in the test with RXF 393 renal and above 95900 nM in the test with SF-268 CNS.

For `NC(N)=N/N=C/c1cc(Cl)cc(Cl)c1O`, the TGI with HCC-2998 colon is 32000 nM; in the test with HT29 colon, above 100000 nM; in the test with KM12 colon, above 100000 nM; in the test with MALME-3M melanoma, above 100000 nM; with MDA-MB-231 breast it was above 100000 nM; in the test on MDA-MB-435, above 100000 nM. In addition, the TGI in the test with NCI-H226 lung, in the test on NCI/ADR-RES ovarian, in the test with RXF 393 renal and with SF-268 CNS was above 100000 nM in each case.

Source of the values: PubChem BioAssay (NCI).
